Laboratory results reported in US20220125959A1, “PROSTATE-SPECIFIC MEMBRANE ANTIGEN (PSMA) INHIBITORS AS DIAGNOSTIC AND RADIONUCLIDE THERAPEUTIC AGENTS” (FIVE ELEVEN PHARMA INC., priority 2019, published 2022).

What was measured:
[1] = target: T1, PSMA (Homo sapiens, UniProt Q04609); set-up: expressed in transfected cells; host or cells: PC-3 PIP cells; settings: ^131I labeled MIP-1095; read-out: PSMA binding affinity Ki; cited from earlier work
Target sequence in this assay (Q04609 whole entry, species assumed): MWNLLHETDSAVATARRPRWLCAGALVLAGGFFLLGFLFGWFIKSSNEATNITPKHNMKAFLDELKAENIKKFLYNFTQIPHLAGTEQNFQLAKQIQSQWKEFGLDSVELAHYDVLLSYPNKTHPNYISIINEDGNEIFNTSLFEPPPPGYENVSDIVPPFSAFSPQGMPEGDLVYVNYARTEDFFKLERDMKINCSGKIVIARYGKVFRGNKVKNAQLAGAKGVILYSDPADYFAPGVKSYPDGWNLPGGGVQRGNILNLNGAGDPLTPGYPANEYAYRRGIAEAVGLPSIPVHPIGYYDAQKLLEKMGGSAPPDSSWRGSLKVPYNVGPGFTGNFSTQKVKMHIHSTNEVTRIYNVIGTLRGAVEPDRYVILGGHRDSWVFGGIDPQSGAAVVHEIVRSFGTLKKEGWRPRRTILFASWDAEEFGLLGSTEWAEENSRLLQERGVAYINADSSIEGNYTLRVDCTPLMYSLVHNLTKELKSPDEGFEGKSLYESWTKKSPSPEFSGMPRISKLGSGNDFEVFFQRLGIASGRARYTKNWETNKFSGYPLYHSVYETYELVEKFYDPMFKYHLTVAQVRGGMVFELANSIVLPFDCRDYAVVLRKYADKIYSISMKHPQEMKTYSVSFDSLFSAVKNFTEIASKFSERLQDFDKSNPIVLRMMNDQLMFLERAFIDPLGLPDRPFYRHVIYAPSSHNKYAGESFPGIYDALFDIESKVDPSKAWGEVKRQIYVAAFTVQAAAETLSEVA

[2] = target: T1, PSMA; test: PSMA competitive binding, LNCaP cells with [68Ga]PSMA-11; set-up: LNCaP with 0.2 nM; endogenous in cells; host or cells: LNCaP cells (suspension); settings: n = 3; read-out: IC50 (LNCaP human PCa cells and [68Ga]PSMA-11)
Protocol: (§1) In vitro binding assays were carried out to determine the PSMA binding affinity of various compounds. By incubating PSMA positive cells either with: 1). LNCaP with 0.2 nM [^68Ga]PSMA-11 or [^125I]MIP-1095, as the ligand, in the presence of 10 different concentrations of competing ligands; non-specific binding was defined with 20 μM 2-PMPA (2-(phosphonomethyl)pentanedioic acid); or 2). PC-3 PIP cells with [^125I]MIP-1095 (0.18 nM diluted in PBS) in presence of different concentration of test compounds ([…] diluted in PBS containing 0.1% bovine serum albumin). Nonspecific binding (NSB) was defined with 2 μM the known PSMA inhibitor, PSMA-617. After incubation at 37° C. for 1 h, the bound and free fractions were separated by vacuum filtration through GF/B filters using a Brandel M-24R cell harvester. The filters were washed twice with cold Tris-HCl buffer (50 mM, pH=7.4), and the radioactivity on the filters was counted in a gamma counter (Wizard^2, Perkin-Elmer) with 50% efficiency. The nonspecific bound was less than 10% of the total bound. Data were analyzed using GraphPad Prism 6.0 with a nonlinear regression algorithm to obtain the half maximal inhibitory concentration (IC50).
(§2) The binding affinities to PSMA of the test compounds were measured by a competitive binding assay using either LNCap or PC-3 PIP cells suspension and the known radiotracers known to have high affinity and specificity to PSMA, [^68Ga]PSMA-11 or [^125I]MIP-1095. The IC50 values of four iodinated compounds, three DOTA, DOTAG and DOTA(GA)2 related compounds and two known PSMA inhibitors are shown in Table 1. Complexes of compound 4 and natural Ga and natural Lu were also tested. […] After labeling with radioisotope they are expected to bind to the tumor tissues over expressing PSMA binding sites.
Target sequence in this assay (Q04609 whole entry): as the sequence (Q04609 whole entry, species assumed) above

[3] = target: T1, PSMA; test: PSMA competitive binding, PC-3 PIP cells with [125I]MIP-1095; set-up: expressed in transfected cells; host or cells: PC-3 PIP cells; settings: n = 3 (a: n = 2); read-out: IC50 *(PC-3 PIP cells and [125I]MIP-1095)
Protocol: as §1, §2
Target sequence in this assay (Q04609 whole entry, species assumed): as above

IC50 [2] [nM] | IC50 [3] [nM] | SMILES | Ki [1] [nM]
28.7 ± 1.7 | 33.9 ± 2.38 | O=C(O)CCC(C(=O)O)N1CCN(CC(=O)O)CCN(C(CCC(=O)NCC(=O)N[C@@H](Cc2ccc(OCC(=O)N[C@@H](Cc3ccccc3)C(=O)NCCCC[C@H](NC(=O)N[C@@H](CCC(=O)O)C(=O)O)C(=O)O)cc2)C(=O)O)C(=O)O)CCN(CC(=O)O)CC1 (stereo partly drawn) [Compound 4, (4S,11S,15S)-4-benzyl-1-(4-((2S)-2-(2-(4-(4,10-bis(carboxymethyl)-7-(1,3-dicarboxypropyl)-1,4,7,10-tetraazacyclododecan-1-yl)-4-carboxybutanamido)acetamido)-2-carboxyethyl)phenoxy)-2,5,13-trioxo-3,6,12,14-tetraazaheptadecane-11,15,17-tricarboxylic acid] | 
15.4 ± 0.8 | 13.6 ± 1.02 | O=C(O)CC[C@H](NC(=O)N[C@@H](CCCCNC(=O)[C@H](Cc1ccccc1)NC(=O)COc1ccc(C[C@H](NC(=O)CNC(=O)CCC(C(=O)O)N2CCN(CC(=O)O)CCN(C(CCC(=O)NCCOCCOCCNC(=O)CCCc3ccc(I)cc3)C(=O)O)CCN(CC(=O)O)CC2)C(=O)O)cc1)C(=O)O)C(=O)O (stereo partly drawn) [Compound 7, (4S,11S,15S)-4-benzyl-1-(4-((2S)-2-carboxy-2-(2-(4-carboxy-4-(7-(1-carboxy-18-(4-iodophenyl)-4,15-dioxo-8,11-dioxa-5,14-diazaoctadecyl)-4,10-bis(carboxymethyl)-1,4,7,10-tetraazacyclododecan-1-yl)butanamido)acetamido)ethyl)phenoxy)-2,5,13-trioxo-3,6,12,14-tetraazaheptadecane-11,15,17-tricarboxylic acid] | 

The next lines start with the compound.

SMILES | IC50 [2] [nM] | IC50 [3] [nM] | Ki [1] [nM]
O=C(O)CC[C@H](NC(=O)N[C@@H](CCCCNC(=O)Nc1ccc(I)cc1)C(=O)O)C(=O)O [MIP-1095] |  |  | 4.6
O=C(O)CC[C@H](NC(=O)N[C@@H](CCCCNC(=O)[C@H](Cc1ccccc1)NC(=O)COc1ccc(C[C@H](NC(=O)CNC(=O)CCC(C(=O)O)N2CCN(CC(=O)O)CCN(CC(=O)O)CCN(CC(=O)O)CC2)C(=O)NCC(=O)NC(P(=O)(O)O)P(=O)(O)O)cc1)C(=O)O)C(=O)O (stereo partly drawn) [Compound 51, (((1S)-1-Carboxy-5-((2S)-2-(2-(4-((2S)-2-(2-(4-carboxy-4-(4,7,10-tris(carboxymethyl)-1,4,7,10-tetraazacyclododecan-1-yl)butanamido)acetamido)-3-((2-((diphosphonomethyl)amino)-2-oxoethyl)amino)-3-oxopropyl)phenoxy)acetamido)-3-phenylpropanamido)pentyl)carbamoyl)-L-glutamic acid] | 10.7 ± 1.6 |  | 
O=C(O)CC[C@H](NC(=O)N[C@@H](CCCCNC(=O)[C@H](Cc1ccc2ccccc2c1)NC(=O)[C@H]1CC[C@H](CNC(=O)CN2CCN(CC(=O)O)CCN(CC(=O)O)CCN(CC(=O)O)CC2)CC1)C(=O)O)C(=O)O [PSMA-617, 2-[3-(1-Carboxy-5-(3-naphthalen-2-yl-2-[(4-([2-(4,7,10-tris-carboxymethyl-1,4,7,10-tetraaza-cyclododec-1-yl)-acetylamino]-methyl)-cyclohexanecarbonyl)-amino]-Propionylamino)-pentyl)-ureido]-pentanedioic acid, reference compound] | 11.1 ± 0.8 | 10.9 ± 0.37 | 
